{"source": "patent US6046289A", "about": "“Propenamide derivatives containing Arg-Gly-Asp polymers obtained therefrom” (priority 1990, dated 2000)", "tested_on": "human plasma rich in platelet", "assay": "Platelet coagulation-inhibitory activity in vitro (aggregometer, ADP or collagen stimulation)", "type": "cell-based", "description": "The platelet coagulation-inhibitory effect of the compounds of the present invention was assayed, in vitro, using human plasma rich in platelet. The experimental method will be described below.\nTo fresh human blood, there was added 1/9 volume of a 3.8% sodium citrate solution, the resulting mixture was centrifuged (1000 rpm; for 10 minutes) and the upper layer was separated as a plasma rich in platelet. The propenamide derivatives, the polymers thereof, the copolymers thereof or salts thereof obtained through lyophilization were dissolved in physiological saline to give a plurality of solutions having various concentrations ranging from 0 to 1.5 mg/ml. Each of the solutions (25 μl) was added to 200 μl of the plasma, incubated at 37° C. for 3 minutes, then a 50 μM of ADP (adenosine diphosphate) solution or a 200 μg/ml collagen solution was added to determine the extent of coagulation in terms of transmittance determined by an aggregometer.\nRate of Coagulation Inhibition=(1-T/T0)×100%\nT0 : Transmittance observed when the propenamide derivatives, the polymers thereof, the copolymers thereof or salts thereof were not added.\nT: Transmittance observed when the propenamide derivatives, the polymers thereof, the copolymers thereof or salts thereof were added.", "data": [{"substance": "trimethylammonioethyl methacrylamide [Preparation product 14]", "values": [{"measurement": "Platelet Coagulation-Inhibitory Activity IC50 ADP Stimulation", "setting": "ADP Stimulation", "result": "C (more than 80)"}, {"measurement": "Platelet Coagulation-Inhibitory Activity IC50 Collagen Stimulation", "setting": "Collagen Stimulation", "result": "C (more than 80)"}]}]}
